± gives the expanded uncertainty stated by the source.
Test: xn = mol fraction of the nth substance listed
Details: 298.15 K, Liquid

CCCCCCCCCl [1-chlorooctane] + CN1CCCC1=O
mass density [kg/m3]
Details | x2 = 0.0969 | x2 = 0.2014 | x2 = 0.3097 | x2 = 0.4076 | x2 = 0.5021 | x2 = 0.6022 | x2 = 0.7005 | x2 = 0.8007 | x2 = 0.9008
100 kPa | 878 ± 1.2 | 888.8 ± 1.1 | 901.2 ± 0.9 | 913.6 ± 0.8 | 926.9 ± 0.7 | 942.5 ± 0.6 | 959.8 ± 0.5 | 979.6 ± 0.5 | 1002.2 ± 0.4
500 kPa | 878.3 ± 1.2 | 889.1 ± 1.1 | 901.5 ± 1 | 913.9 ± 0.9 | 927.2 ± 0.8 | 942.8 ± 0.6 | 960 ± 0.5 | 979.8 ± 0.5 | 1002.4 ± 0.4
1000 kPa | 878.6 ± 1.2 | 889.4 ± 1.1 | 901.9 ± 1 | 914.3 ± 0.9 | 927.5 ± 0.8 | 943.1 ± 0.7 | 960.3 ± 0.6 | 980.1 ± 0.5 | 1002.7 ± 0.4
1500 kPa | 879 ± 1.2 | 889.8 ± 1.1 | 902.3 ± 1 | 914.6 ± 0.9 | 927.8 ± 0.8 | 943.4 ± 0.7 | 960.6 ± 0.6 | 980.4 ± 0.5 | 1003 ± 0.4
2000 kPa | 879.4 ± 1.2 | 890.2 ± 1.1 | 902.5 ± 1 | 914.9 ± 0.9 | 928.2 ± 0.8 | 943.7 ± 0.7 | 960.9 ± 0.6 | 980.7 ± 0.5 | 1003.2 ± 0.4
2500 kPa | 879.7 ± 1.3 | 890.6 ± 1.1 | 902.9 ± 1 | 915.2 ± 0.9 | 928.5 ± 0.8 | 944.1 ± 0.7 | 961.2 ± 0.6 | 981 ± 0.5 | 1003.5 ± 0.4
2900 kPa | – | – | – | – | – | 944.4 ± 0.7 | – | – | –
3000 kPa | 880.2 ± 1.3 | 890.9 ± 1.1 | 903.3 ± 1 | 915.6 ± 0.9 | 928.8 ± 0.8 | – | 961.6 ± 0.6 | 981.3 ± 0.5 | 1003.8 ± 0.4
3400 kPa | 880.5 ± 1.3 | – | – | – | – | – | – | – | –
3500 kPa | – | 891.3 ± 1.2 | 903.7 ± 1 | 916 ± 0.9 | 929.1 ± 0.8 | 944.7 ± 0.7 | 961.8 ± 0.6 | 981.6 ± 0.5 | 1004.1 ± 0.4
4000 kPa | 880.8 ± 1.3 | 891.6 ± 1.2 | 904 ± 1.1 | 916.3 ± 0.9 | 929.5 ± 0.8 | 945 ± 0.7 | 962.2 ± 0.6 | 981.9 ± 0.5 | 1004.4 ± 0.4
4400 kPa | – | – | – | 916.6 ± 0.9 | – | – | – | – | –
4500 kPa | 881.2 ± 1.3 | 892 ± 1.2 | 904.4 ± 1.1 | – | 929.8 ± 0.8 | 945.3 ± 0.7 | 962.4 ± 0.6 | 982.2 ± 0.5 | 1004.6 ± 0.4
5000 kPa | 881.6 ± 1.3 | 892.3 ± 1.2 | 904.7 ± 1.1 | 917 ± 1 | 930.2 ± 0.8 | 945.7 ± 0.7 | 962.8 ± 0.6 | 982.5 ± 0.5 | 1004.9 ± 0.4
5500 kPa | 882 ± 1.4 | 892.7 ± 1.2 | 905 ± 1.1 | 917.3 ± 1 | 930.4 ± 0.9 | 946 ± 0.7 | 963.1 ± 0.6 | 982.8 ± 0.5 | 1005.2 ± 0.4
5900 kPa | – | – | – | – | 930.8 ± 0.9 | – | – | – | –
6000 kPa | 882.3 ± 1.4 | 893.1 ± 1.2 | 905.4 ± 1.1 | 917.6 ± 1 | – | 946.3 ± 0.7 | 963.4 ± 0.6 | 983.1 ± 0.5 | 1005.5 ± 0.4
6500 kPa | 882.7 ± 1.4 | 893.4 ± 1.3 | 905.8 ± 1.1 | 917.9 ± 1 | 931.1 ± 0.9 | 946.6 ± 0.7 | 963.7 ± 0.6 | 983.3 ± 0.5 | 1005.8 ± 0.4
7000 kPa | 883.1 ± 1.4 | 893.8 ± 1.3 | 906.1 ± 1.1 | 918.4 ± 1 | 931.5 ± 0.9 | 946.9 ± 0.7 | 964 ± 0.6 | 983.6 ± 0.5 | 1006.1 ± 0.4
7400 kPa | 883.4 ± 1.4 | – | – | – | – | – | – | – | –
7500 kPa | – | 894.1 ± 1.3 | 906.4 ± 1.1 | 918.6 ± 1 | 931.8 ± 0.9 | 947.2 ± 0.8 | 964.3 ± 0.6 | 983.9 ± 0.5 | 1006.4 ± 0.4
7900 kPa | 883.7 ± 1.4 | – | – | – | – | – | – | – | –
8000 kPa | – | 894.4 ± 1.3 | 906.7 ± 1.2 | 918.9 ± 1 | 932.1 ± 0.9 | 947.5 ± 0.8 | 964.6 ± 0.6 | 984.2 ± 0.5 | 1006.6 ± 0.4
8500 kPa | 884.1 ± 1.5 | 894.8 ± 1.3 | 907 ± 1.2 | 919.2 ± 1 | 932.5 ± 0.9 | 947.8 ± 0.8 | 964.9 ± 0.6 | 984.5 ± 0.5 | 1007 ± 0.4
9000 kPa | 884.4 ± 1.5 | 895.1 ± 1.3 | 907.4 ± 1.2 | 919.6 ± 1 | 932.8 ± 0.9 | 948.1 ± 0.8 | 965.2 ± 0.6 | 984.8 ± 0.5 | 1007.2 ± 0.4
9500 kPa | 884.8 ± 1.5 | 895.5 ± 1.3 | 907.8 ± 1.2 | 920 ± 1.1 | 933.1 ± 0.9 | 948.4 ± 0.8 | 965.5 ± 0.6 | 985.1 ± 0.5 | 1007.5 ± 0.4
9900 kPa | – | – | – | – | – | – | – | 985.4 ± 0.5 | –
10000 kPa | 885.3 ± 1.5 | 895.9 ± 1.4 | 908.1 ± 1.2 | – | – | – | – | – | –

Source: the NIST ThermoML archive (doi:10.1021/je7003758)
